Experiment [1] deals with HT-29 cells (human colon carcinoma cell line). Kind of experiment: MTT anti-proliferation assay on HT-29 cells. Format: cell-based. Particulars: Homo sapiens, 120 h, 384 well plates, 5 days, read-out: IC50 HT29 384. The source says:
MTT (3-(4,5-dimethylthiazol-2-yl)-2,5-diphenyl tetrazolium bromide) is widely used for the quantitative determination of cytotoxic effects or in vitro chemosensitivity of tumor cells. The assay is based on the cleavage of the yellow tetrazolium salt (MTT) to purple formazan crystals by metabolic active cells. For details, see Rubinstein, L. V., et al., J. Natl. Cancer Inst. 82 (1990) 1113.
We proceeded as follows: HT-29 cells (human colon carcinoma cell line) were cultivated in RPMI 1640, 2.5% FCS, 2 mM glutamine, 100 u/ml penicillin, 100 ug/ml streptomycin. For the assay the cells were seeded in 384 well plates, 900 cells per well, in the same medium. At the next day, the compounds (dissolved 10 mM in DMSO) were added in various concentrations ranging from 30 uM to 1.5 nM. After 5 days, the MTT assay was done mainly according to the instructions of the manufacturer (Cell proliferation kit I, MTT, from Roche Molecular Biochemicals). In brief: MTT labeling reagent was added to a final concentration of 0.5 mg/ml, added and incubated for 4 hrs at 37° C., 5% CO2. During this incubation time purple formazan crystals are formed. After addition of the solubilization solution (20% SDS in 0.02 M HCl) the plates were incubated overnight at 37° C., 5% CO2. After careful mixing, the plates were measured in Victor 2 (scanning multiwell spectrophotometer, Wallac) at 550 nm.
A decrease in number of living cells results in a decrease in the total metabolic activity in the sample. The decrease directly correlates to the amount of purple color resulting from the solubilization of the purple formazan crystals. Determination of IC50 was done using XL-fit.

Another experiment has as its target T1, recombinant HDAC-1 (Homo sapiens, UniProt Q13547).
T1 construct: made in house; host or cells: HEK 293 cells
Description: HDAC biochemical quench assay. Particulars: recombinant HDAC-1 purified from HEK 293 cells, 1 uM peptide substrate, 90 min at room temperature. From the text:
The function of histone deacetylase (HDAC) is the deacetylation of lysines in e.g. histone H4. A peptide of 17 amino acids derived from histone H4 was labeled with TAMRA at the C-terminus and QSY-7 at the N-terminus and was used as a substrate (TAMRA-first17 aa of histone H4-QSY7). Following deacetylation by HDAC, the enzyme Lys C is able to cleave the peptide after lysine. […] Inhibition of HDAC by compounds results in low signals because Lys C could not cleave the substrate and the quench effect persists.
For dose response curves, 10 concentrations were diluted 1:3 starting at 30 uM. 10 ul compound dilution were put into each well of a 384 well plate. 10 ul HDAC were added (recombinant HDAC-1 purified from HEK 293 cells; enzyme activity has to be assessed for each preparation). 10 ul peptide substrate was added (1 uM final concentration, derived from 1 mM stock solution diluted 1:1000 in test buffer). After 90 min incubation at room temperature, the reaction was stopped by addition of 20 ul test buffer including 3 ug/ml Lys C and 0.075% SDS. After overnight incubation the fluorescence signal of TAMRA was measured (Victor 2 from Wallac, absorption 544 nm, emission 590 nm). The O.D. of DMSO-treated control wells is 100%, the % inhibition of compound treated wells is calculated in relation to 100%. Based on 10 concentrations a IC50 curve is generated by using XL.fit3.
Test buffer used: a mixture of 10 mM Hepes pH8, 10 mM NaCl, 10% Glycerol, 0.005% Triton X100, 0.1 mM EDTA, 0.1 mM TCEP. As plates were used 384 well plates (black, Greiner, 781077).

A word on the IC50: it is the concentration at which inhibition is half-maximal.

T1 sequence (Q13547 whole entry, species assumed): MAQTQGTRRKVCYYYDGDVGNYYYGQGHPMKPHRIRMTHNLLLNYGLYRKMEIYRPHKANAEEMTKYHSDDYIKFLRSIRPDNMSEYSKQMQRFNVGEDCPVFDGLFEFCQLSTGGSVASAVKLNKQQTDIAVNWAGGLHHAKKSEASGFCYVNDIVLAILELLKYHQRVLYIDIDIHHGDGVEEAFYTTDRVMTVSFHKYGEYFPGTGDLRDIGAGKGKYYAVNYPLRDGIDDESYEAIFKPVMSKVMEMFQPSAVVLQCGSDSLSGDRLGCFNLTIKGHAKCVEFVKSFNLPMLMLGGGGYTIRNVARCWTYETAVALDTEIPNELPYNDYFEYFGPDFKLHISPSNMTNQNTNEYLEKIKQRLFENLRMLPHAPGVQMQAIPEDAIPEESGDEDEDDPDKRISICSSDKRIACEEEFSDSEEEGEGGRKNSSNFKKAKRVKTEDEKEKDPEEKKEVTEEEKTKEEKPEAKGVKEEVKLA

In the case of `O=C(NO)c1ccc(C(=O)N[C@H](Cc2ccccc2)c2ccccc2)s1` [Example 8f, (R)-thiophene-2,5-dicarboxylic acid 2-[(1,2-diphenyl-ethyl)-amide]5-hydroxyamide], the values for the IC50 (in experiment [1]; at recombinant HDAC-1) were 40 nM and 1.33 nM, respectively.
For `C[C@H](NC(=O)c1ccc(C(=O)NO)s1)c1cccs1` [Example 9, (S)-Thiophene-2,5-dicarboxylic Acid 2-hydroxyamide 5-[(1-thiophen-2-yl-ethyl)-amide]], the IC50 in experiment [1] stood at 520 nM; at recombinant HDAC-1, 3.82 nM.
Turning to `C[C@H](NC(=O)c1ccc(C(=O)NO)s1)c1ccc(C(F)(F)F)cc1` [Example 10d, (S)-thiophene-2,5-dicarboxylic acid 2-hydroxyamide 5-{[1-(4-trifluoromethyl-phenyl)-ethyl]-amide}], the results for the IC50 (in experiment [1]; on recombinant HDAC-1) were 350 nM and 2.69 nM, respectively.
On the same counts, the results for `C[C@H](NC(=O)c1ccc(C(=O)NO)s1)c1ccc(C(C)(C)C)cc1` [Example 10e, (S)-thiophene-2,5-dicarboxylic acid 2-{[1-(4-tert-butyl-phenyl)-ethyl]-amide}5-hydroxyamide] are 580 nM and 1.39 nM.
Take `O=C(NO)c1ccc(C(=O)N[C@@H](Cc2ccccc2)c2ccccc2)s1` [Example 10f, (S)-thiophene-2,5-dicarboxylic acid 2-[(1,2-diphenyl-ethyl)-amide]5-hydroxyamide]: the IC50 in experiment [1] came out at 40 nM; at recombinant HDAC-1 it was 0.58 nM.

These data come from patent US7098241B2, “Thiophene hydroxamic acid derivatives” (Hoffmann-La Roche Inc., priority 2002, dated 2006).
